Test results: EP4813992A1, “POLYARYL DERIVATIVE AND USE THEREOF” (Hangzhou HealZen Therapeutics Co., Ltd., priority 2023, dated 2025)

Legend:
HPK1 kinase [1] = target: T1, HPK1 kinase (Homo sapiens, UniProt Q92918); assay: Lantha screen assay, inhibitory effect on HPK1 kinase; assay type: biochemical; conditions: initial compound concentration 1 µM
Method in brief: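 Kinase pre-incubated with compound for 10 min at room temperature in 50 mM HEPES pH 7.5, 10 mM MgCl2, 4 mM DTT, 0.01% Tween-20, 0.01% BSA. Fluorescein-PKC substrate plus ATP then added for 90 min, stopped with antibody/EDTA for 60 min. Top concentration 1 µM; IC50 from four-parameter fit of inhibition vs log concentration.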

HPK1 kinase [2] = target: T1, HPK1 kinase; assay: Activity of degrading HPK1 in Jurkat cells (Western blot, 24 h); assay type: cell-based; design: endogenous in cells; host or cells: Jurkat; conditions: HPK1 protein degradation
Procedure: The adjusted samples are added to 5*loading buffer, boiled at 100°C for 10 minutes, and then the samples are loaded after the temperature is returned to room temperature. • 4) Detection of samples: Electrophoresis is performed using 10% SDS-PAGE with a sample loading volume of 8 µL/well. After the membrane transfer is completed, the samples are blocked with 5% BSA at room temperature for 1 h. After the residual blocking solution is washed away with TBST, HPK1 and GAPDH antibodies are added for incubation overnight at 4°C. Washing is performed 3 more times with TBST on a shaker, 10 minutes each time. After washing is completed, the secondary antibody is added for incubation at room temperature for 1 hour; then, washing is performed 3 more times with TBST on a shaker, 10 minutes each time; finally, ECL exposure solution is used to develop and image the bands to detect changes in HPK1 protein.

HPK1/GLK = assay: Selectivity of degrading HPK1/GLK in Jurkat cells (Western blot, 24 h); assay type: cell-based; conditions: HPK1/GLK Fold = DC50 (HPK1) / DC50 (GLK)
Procedure: • 1) Cell plating: Cells are resuscitated, Jurkat cell lines in good growth condition are selected, and cells in the logarithmic growth phase are collected and counted; cell suspensions are seeded into 12 or 24-well plates (20W/well) and incubated overnight at 37°C in a 5% CO2 incubator. • 2) Preparation of compounds to be tested: The compounds to be tested are serially diluted with DMSO according to the experimental requirements and added to the corresponding cell wells, to be incubated at 37°C in a 5% CO2 incubator for 24 h. • 3) Preparation of samples: After the reaction of the compound to be tested is completed, the cells are collected in 1.5 mL EP tubes, and centrifuged at 1500 rpm for 5 min; after the supernatant is discarded, the cells are washed once with PBS, and the BCA protein is quantified and the concentration is adjusted. The adjusted samples are added to 5*loading buffer, boiled at 100°C for 10 minutes, and then the samples are loaded after the temperature is returned to room temperature. • 4) Detection of samples: Electrophoresis is performed using 10% SDS-PAGE with a sample loading volume of 10 µL/well. After the membrane transfer is completed, the samples are blocked with 5% skim milk at room temperature for 1 h. After the residual blocking solution is washed away with TBST, HPK1 and GLK antibodies are added for incubation overnight at 4°C. Washing is performed 3 more times with TBST on a shaker, 5 minutes each time. After washing is completed, the secondary antibody is added for incubation at room temperature in a shaker for 1 hour; then, washing is performed 3 more times with TBST on a shaker, 5 minutes each time; finally, the membrane is soaked in TBST and then subjected to chemiluminescence development. • 5) Data Processing: After the PVDF membrane is developed, the data are exported and plotted using Imang J, and the gray values of the protein bands are analyzed using Image J software; the DC50 curve is fitted using Graphpad Prism 9 software to obtain the results of the selectivity of the compound in degrading HPK1/GLK: HPK1/GLK Fold = DC50 (HPK1) / DC50 (GLK) . Table 3 Selectivity of the compounds of the invention in degrading HPK1/GLK

[3] = Pharmacokinetic properties in SD rats after gavage; assay type: in vivo; conditions: rat, po, 10 mg/kg, plasma
Procedure: The test compound is administered to SD rats by gavage at a dose of 10 mg/kg. Blood samples are collected at 0 h (before administration) and at 0.083, 0.25, 1, 2, 4, 6, 8, and 24 h after oral gavage administration. The samples are placed in anticoagulant tubes containing heparin sodium, and the mixture is thoroughly vortexed and centrifuged at 6000 rpm for 3 minutes. Plasma concentrations are determined by LC-MS/MS, and relevant pharmacokinetic parameters are calculated using Phoenix WinNonlin 8.2.0 pharmacokinetic software. Table 4 Pharmacokinetic properties of the compounds of the invention

T1 sequence (Q92918 whole entry): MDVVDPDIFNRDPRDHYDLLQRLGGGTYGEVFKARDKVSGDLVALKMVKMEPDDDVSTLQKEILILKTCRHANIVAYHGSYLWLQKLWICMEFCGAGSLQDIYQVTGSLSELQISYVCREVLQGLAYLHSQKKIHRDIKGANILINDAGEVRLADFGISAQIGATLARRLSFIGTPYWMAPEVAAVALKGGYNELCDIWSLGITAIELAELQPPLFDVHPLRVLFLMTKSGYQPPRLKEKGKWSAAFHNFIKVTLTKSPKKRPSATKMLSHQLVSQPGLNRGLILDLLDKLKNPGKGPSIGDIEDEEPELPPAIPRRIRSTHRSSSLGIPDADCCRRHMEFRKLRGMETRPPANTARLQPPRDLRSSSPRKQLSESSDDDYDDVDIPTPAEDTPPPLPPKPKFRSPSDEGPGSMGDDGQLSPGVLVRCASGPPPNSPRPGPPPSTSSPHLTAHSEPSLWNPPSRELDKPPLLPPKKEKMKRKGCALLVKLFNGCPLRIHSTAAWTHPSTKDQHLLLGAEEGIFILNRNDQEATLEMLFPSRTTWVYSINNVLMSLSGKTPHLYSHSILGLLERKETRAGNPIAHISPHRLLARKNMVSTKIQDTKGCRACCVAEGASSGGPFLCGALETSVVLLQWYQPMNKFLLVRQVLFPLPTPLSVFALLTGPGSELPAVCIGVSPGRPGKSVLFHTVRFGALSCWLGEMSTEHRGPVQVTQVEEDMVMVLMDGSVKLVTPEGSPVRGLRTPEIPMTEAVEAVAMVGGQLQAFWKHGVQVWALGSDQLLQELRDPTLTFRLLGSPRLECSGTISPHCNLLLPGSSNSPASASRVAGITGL

Structure (SMILES) | IC50 (HPK1 kinase [1]) | DC50 (HPK1 kinase [2]; class symbols) | HPK1/GLK Fold (HPK1/GLK) | AUC [3] | DC50 (HPK1 kinase [2]; numeric values)
Cc1cc(-c2cnc3[nH]cc(-c4cnc5cc(F)ccn45)c3n2)cc(C)c1C1=CCN(CC2CN(c3ccc(N4CCC(=O)NC4=O)c(F)c3)C2)CC1 [compound 167] | < 10 nM | < 10 nM | ++++ (1000≤Fold) | – | –
Cc1cc(-c2c[nH]c3ncc(-c4cc(C)c(C5=CCN(CC6CN(c7ccc(N8CCC(=O)NC8=O)c(F)c7)C6)CC5)c(C)c4)nc23)c(C)s1 [compound 150] | < 10 nM | < 10 nM | ++++ (1000≤Fold) | 13100 ng·h/mL | –
Cc1cc(-c2cnc3[nH]cc(-c4ccc(C(=O)N(C)C)cc4)c3n2)cc(C)c1C1=CCN(C2CN(c3ccc(C(=O)NC4CCC(=O)NC4=O)nc3)C2)CC1 (stereo not drawn) [compound 012] | < 10 nM | – | ++++ (1000≤Fold) | – | –
Cc1cc(-c2cnc3[nH]cc(-c4ccc(C(=O)N(C)C)cc4)c3n2)cc(C)c1C1=CCN(CC2CN(c3ccc(NC4CCC(=O)NC4=O)cc3F)C2)CC1 (stereo not drawn) [compound 052] | – | < 10 nM | ++++ (1000≤Fold) | 6300 ng·h/mL | –
Cc1cc(-c2cnc3[nH]cc(-n4cc(C5CC5)cn4)c3n2)cc(C)c1C1=CCN(CC2CN(c3ccc(N4CCC(=O)NC4=O)c(F)c3)C2)CC1 [compound 160] | < 10 nM | < 10 nM | ++++ (1000≤Fold) | – | –
Cc1cc(-c2cnc3[nH]cc(-c4ccc(C(=O)N(C)C)cc4)c3c2)cc(C)c1C1=CCN(CC2CN(C(=O)c3ccc(Cl)c(N4CCC(=O)NC4=O)c3)C2)CC1 [compound 130] | < 10 nM | – | ++++ (1000≤Fold) | – | –
Cc1cc(-c2cnc3[nH]cc(-c4cnc(C(F)(F)F)s4)c3n2)cc(C)c1C1=CCN(CC2CN(c3ccc(N4CCC(=O)NC4=O)c(F)c3)C2)CC1 [compound 165] | < 10 nM | < 10 nM | ++++ (1000≤Fold) | – | –
Cc1cc(-c2cnc3[nH]cc(-c4ccc(C(=O)N(C)C)cc4)c3n2)cc(C)c1C1=CCN(C2CN(c3ccc(C(=O)NC4CCC(=O)NC4=O)cn3)C2)CC1 (stereo not drawn) [compound 011] | < 10 nM | – | ++++ (1000≤Fold) | 8990 ng·h/mL | –
Cc1cc(-c2cnc3[nH]cc(-c4ccc(C(=O)N(C)C)cc4)c3n2)cc(C)c1C1=CCN(CC2CN(c3ccc(C(=O)NC4CCC(=O)NC4=O)cc3)C2)CC1 (stereo not drawn) [compound 081] | < 10 nM | < 10 nM | ++++ (1000≤Fold) | – | –
Cc1cc(-c2cnc3[nH]cc(-c4ccc(C(=O)N(C)C)cc4)c3n2)cc(C)c1C1=CCN(CC2CN(c3ccc(C(=O)NC4CCC(=O)NC4=O)cn3)C2)CC1 (stereo not drawn) [compound 089] | < 10 nM | – | ++++ (1000≤Fold) | – | –
Cc1cc(N2CC(CN3CC=C(c4c(C)cc(-c5cnc6[nH]cc(-c7cnn(C8CCN(CC(F)F)CC8)c7)c6c5)cc4C)CC3)C2)ccc1N1CCC(=O)NC1=O [compound 110] | < 10 nM | – | – | 4070 ng·h/mL | 12.4 nM
Cc1cc(N2CC(CN3CC=C(c4c(C)cc(-c5cnc6[nH]cc(-c7ccc8c(c7)CCN(C)C8=O)c6c5)cc4C)CC3)C2)ccc1N1CCC(=O)NC1=O [compound 099] | < 10 nM | < 10 nM | ++++ (1000≤Fold) | – | –
Cc1cc(-c2cnc3[nH]cc(-c4ccc(C(=O)N(C)CC(C)O)cc4)c3n2)cc(C)c1C1=CCN(CC2CN(c3ccc(N4CCC(=O)NC4=O)c(F)c3)C2)CC1 (stereo not drawn) [compound 107] | < 10 nM | – | ++++ (1000≤Fold) | – | –
Cc1cc(-c2cnc3[nH]cc(-c4ccc(C(=O)N(C)C)cc4)c3n2)cc(C)c1C1=CCN(CC2CN(c3ccc(OC4CCC(=O)NC4=O)cn3)C2)CC1 (stereo not drawn) [compound 086] | < 10 nM | – | ++++ (1000≤Fold) | 8500 ng·h/mL | –
Cc1cc(-c2cnc3[nH]cc(-c4ccc(C(=O)N(C)C)cc4)c3n2)cc(C)c1C1=CCN(CC2CN(c3cc4c(cc3F)c(N3CCC(=O)NC3=O)nn4C)C2)CC1 [compound 062] | < 10 nM | – | ++++ (1000≤Fold) | 9920 ng·h/mL | –
COCCCN(C)C(=O)c1ccc(-c2c[nH]c3ncc(-c4cc(C)c(C5=CCN(CC6CN(c7ccc(N8CCC(=O)NC8=O)c(C)c7)C6)CC5)c(C)c4)cc23)cc1 [compound 109] | < 10 nM | < 10 nM | ++++ (1000≤Fold) | – | –
O=C1CCN(c2cc(C(=O)N3CCC(CC4CCN(c5ccc(-c6cnc7[nH]cc(-c8cnn(CC(F)(F)F)c8)c7n6)cn5)CC4)CC3)ccc2Cl)C(=O)N1 [Compound a, reference compound] | – | – | – | 3850 ng·h/mL | –
Cc1cc(-c2cnc3[nH]cc(-c4ccc(C(=O)N(C)C)cc4)c3n2)cc(C)c1C1=CCN(CC2CN(c3cc(F)c(N4CCC(=O)NC4=O)c(F)c3)C2)CC1 [compound 079] | < 10 nM | – | ++++ (1000≤Fold) | – | –
Cc1cc(-c2cnc3[nH]cc(-n4cc(CC(F)(F)F)cn4)c3n2)cc(C)c1C1=CCN(CC2CN(c3ccc(N4CCC(=O)NC4=O)c(F)c3)C2)CC1 [compound 162] | < 10 nM | < 10 nM | ++++ (1000≤Fold) | – | –
Cc1cc(-c2cnc3[nH]cc(-c4ccc(C(=O)N5CC6(COC6)C5)cc4)c3n2)cc(C)c1C1=CCN(CC2CN(c3ccc(N4CCC(=O)NC4=O)c(F)c3)C2)CC1 [compound 105] | < 10 nM | < 10 nM | ++++ (1000≤Fold) | – | –
Cc1cc(-c2c[nH]c3ncc(-c4cc(C)c(C5=CCN(CC6CN(c7ccc(N8CCC(=O)NC8=O)c(F)c7)C6)CC5)c(C)c4)nc23)ccc1C(=O)N(C)C [compound 146] | < 10 nM | – | ++++ (1000≤Fold) | – | –
Cc1cc(-c2cnc3[nH]cc(-n4cc(F)cn4)c3n2)cc(C)c1C1=CCN(CC2CN(c3ccc(N4CCC(=O)NC4=O)c(F)c3)C2)CC1 [compound 163] | < 10 nM | < 10 nM | ++++ (1000≤Fold) | – | –
Cc1cc(N2CCC(CN3CC=C(c4c(C)cc(-c5cnc6[nH]cc(-c7ccc(C(=O)N(C)C)cc7)c6n5)cc4C)CC3)CC2)ccc1N1CCC(=O)NC1=O [compound 113] | < 10 nM | < 10 nM | ++++ (1000≤Fold) | – | –
Cc1cc(-c2cnc3[nH]cc(-c4cncc5c4ncn5C)c3n2)cc(C)c1C1=CCN(CC2CN(c3cc(F)c(C4CCC(=O)NC4=O)c(F)c3)C2)CC1 (stereo not drawn) [compound 057] | < 10 nM | – | ++++ (1000≤Fold) | 11300 ng·h/mL | –
Cc1cc(N2CC(C(C)N3CC=C(c4c(C)cc(-c5cnc6[nH]cc(-c7ccc(C(=O)N(C)C)cc7)c6n5)cc4C)CC3)C2)ccc1N1CCC(=O)NC1=O (stereo not drawn) [compound 042] | < 10 nM | – | ++++ (1000≤Fold) | – | –
Cc1cc(-c2cnc3[nH]cc(-c4ccc(C(=O)N(C)C)cc4)c3n2)cc(C)c1C1=CCN(CC2CCN(c3ccc(NC4CCC(=O)NC4=O)cc3F)CC2)CC1 (stereo not drawn) [compound 018] | < 10 nM | < 10 nM | ++++ (1000≤Fold) | – | –
Cc1cc(N2CC(CN3CC=C(c4ccc(-c5cnc6[nH]cc(-c7ccc(C(=O)N(C)C)cc7)c6c5)cc4C(C)C)CC3)C2)ccc1N1CCC(=O)NC1=O [compound 129] | < 10 nM | < 10 nM | ++++ (1000≤Fold) | – | –
COc1ccc(C(=O)N2CC(N3CC=C(c4c(C)cc(-c5cnc6[nH]cc(-c7ccc(C(=O)N(C)C)cc7)c6n5)cc4C)CC3)C2)cc1N1CCC(=O)NC1=O [compound 061] | < 10 nM | – | ++++ (1000≤Fold) | – | –
